Patent publication EP0642351B1, “NEW PHARMACEUTICAL USES OF KRILL ENZYMES” (PHAIRSON MEDICAL, INC., priority 1992, dated 1993)
Like-named read-outs stand apart in the source and are kept apart here.

What was measured:
[1] = system: primary and secondary liver cancer; settings: phase II study, Japan; T. Taguchi et al; cited from earlier work
[2] = Example 39 - Cell viability (tox.) in HIV-contaminated cell lines, in vitro; type: cell-based
Protocol: (§1) This study was carried out at the Swedish National Bacterological Laboratory (SBL). Multi-Protein was compared to AZT and Foscarnet. All preparations were tested at dilutions from undiluted to 10^-5 (highest concentration for Multi-Protein was 5 mg/ml). The preparations were added to the cell linjes, HIV-I infected to 40-60%, under identical and standardized conditions.
(§2) Control: 50% infected cells. Cell toxicity and percentage of infected cells measured by immunofluorescence.
(§3) Control: 50% infected cells. Cell toxicity and percentage of infected cells measured by immanofluorescence.

[3] = system: cell linjes, HIV-I infected to 40-60%; test: as above; type: cell-based
Protocol: as §1, §2, §3

Yoshida Sarcoma = settings: cited from earlier work
[4] = system: mice with P388 murine leukemia; test: Toxicity on mice with s.c. implanted P388 murine leukemia, i.p. daily during 9 consecutive days; type: in vivo; settings: 9 days
Protocol: It may be worth mentioning that the highest dose of PHIM (20 mg/kg) is far higher than any of the curing doses used in any of the clinical examples which have been reported earlier in this description.

COc1cccc2c1C(=O)c1c(O)c3c(c(O)c1C2=O)C[C@@](O)(C(=O)CO)C[C@@H]3O[C@H]1C[C@H](N)[C@H](O)[C@H](C)O1 [Adriamycin]
response rate (CR and PR) [1]: 9.5%

Cc1cn([C@H]2C[C@H](N=[N+]=[N-])[C@@H](CO)O2)c(=O)[nH]c1=O [AZT]
viability [2]: 100%
effect on the cells in the cultures [3]: all cells in the cultures were attacked and killed

O=C(O)P(=O)(O)O [Foscarnet]
viability ([2]; Trial 1, moi 0.4, Multi-Protein: deformed cells, read-out: Cell viability (tox.)): 100%
effect on the cells in the cultures ([3]; at low dilutions): all cells in the cultures were attacked and killed

N.N.[Cl][Pt][Cl] [Cisplatin]
tumour cells not killed (Yoshida Sarcoma; cells removed from the tumour and cultured): 53%

COc1cccc2c1C(=O)c1c(O)c3c(c(O)c1C2=O)C[C@@](O)(C(=O)CO)C[C@@H]3O[C@H]1C[C@H](N)[C@H](O)[C@H](C)O1 [DOX, doxorubicin]
Toxic death ([4]; Dose 1.25 mg/kg i.p. daily): 0/6
Toxic death ([4]; Dose 2.5 mg/kg i.p. daily): 6/6
Body weight change ([4]; Dose 5 mg/kg i.p. daily): -2.3 g
Toxic death ([4]; Dose 5 mg/kg i.p. daily): 6/6

CO[C@@]12[C@H](COC(N)=O)C3=C(C(=O)C(C)=C(N)C3=O)N1C[C@@H]1N[C@@H]12 [Mitomycin C]
side effect profile (Yoshida Sarcoma; 0.5 mg/kg as well as lower doses): loss of body weight, hair loss, decreased leucocytes and chronic diarrhoea
effect on Yoshida Sarcoma resistant to Mitomycin C (Yoshida Sarcoma; 0.5 mg/kg or even higher doses): no effects could be detected
efficacy calculated as 30 days of survival of the rats (Yoshida Sarcoma; non-resistant Yoshida Sarcoma, doses up to 0.5 mg/kg): ~100%
response rate (CR and PR) [1]: 20%
